Experimental data: ChEMBL document CHEMBL4334442, “Effects of Acetylshikonin on the Infection and Replication of Coxsackievirus A16 in Vitro and in Vivo” (J Nat Prod, 2019)
Activity calls are given as the source filed them. No cut-off for these calls is given here.

What was measured:
[1] = Selectivity index, ratio of CC50 for cytotoxicity against human RD cells to EC50 for antiviral activity against Coxsackievirus A16 TA271 infected in human RD cells; assay type: toxicity, cell-based; conditions: read-out: Ratio CC50/EC50
[2] = tested on: Coxsackievirus A16; test: Antiviral activity against Coxsackievirus A16 TA271 infected in RD cells at preinfection stage assessed as appearance of cell shrinkage at 0.08 uM/L preincubated with cells for 3 hrs followed by viral infection and measured after 1 hr by inverted microscopic analysis; assay type: functional, cell-based
[3] = tested on: Coxsackievirus A16; test: Antiviral activity against Coxsackievirus A16 TA271 infected in RD cells at preinfection stage assessed as appearance of rounded cells at 0.08 uM/L preincubated with cells for 3 hrs followed by viral infection and measured after 1 hr by inverted microscopic analysis; assay type: functional, cell-based
[4] = tested on: Coxsackievirus A16; test: Antiviral activity against Coxsackievirus A16 TA271 infected in RD cells at preinfection stage assessed as increase in intracytoplasmic granules at 0.08 uM/L preincubated with cells for 3 hrs followed by viral infection and measured after 1 hr by inverted microscopic analysis; assay type: functional, cell-based
[5] = tested on: Coxsackievirus A16; test: Antiviral activity against Coxsackievirus A16 TA271 infected in RD cells at replication stage assessed as appearance of rounded cells at 0.08 uM/L 1 hr post-infection viral inoculum was removed and cells incubated with medium containing compound and measured after 5 hrs by inverted microscopic analysis; assay type: functional, cell-based
[6] = tested on: Coxsackievirus A16; test: Antiviral activity against Coxsackievirus A16 TA271 infected in RD cells at replication stage assessed as cell detachment at 0.08 uM/L 1 hr post-infection viral inoculum was removed and cells incubated with medium containing compound and measured after 5 hrs by inverted microscopic analysis; assay type: functional, cell-based
[7] = tested on: Coxsackievirus A16; test: Antiviral activity against Coxsackievirus A16 TA271 infected in RD cells at release stage assessed as cell detachment at 0.08 uM/L preincubated with cells for 1 hr followed by replacement of fresh medium containing compounds after 5 hrs post infection and further incubated for 16 hrs post infection by inverted microscopic analysis; assay type: functional, cell-based
[8] = tested on: Coxsackievirus A16; test: Antiviral activity against Coxsackievirus A16 TA271 infected in RD cells assessed as inhibition of viral adsorption/entry by measuring reduction in viral load at 0.08 uM/L incubated for 1 hr and measured after 48 hrs post infection by RT-PCR analysis; assay type: functional, cell-based
[9] = tested on: Coxsackievirus A16; test: Antiviral activity against Coxsackievirus A16 TA271 infected in RD cells assessed as effect on viral load at preinfection stage at 0.08 uM/L preincubated with cells for 3 hrs followed by viral infection for 1 hr and measured after 48 hrs post infection in fresh medium by RT-PCR analysis; assay type: functional, cell-based
[10] = tested on: Coxsackievirus A16; test: Antiviral activity against Coxsackievirus A16 TA271 infected in RD cells assessed as effect on viral load at release stage at 0.08 uM/L preincubated with cells for 1 hr followed by replacement of fresh medium containing compounds for 16 hrs and measured after 48 hrs post infection by RT-PCR analysis; assay type: functional, cell-based
[11] = tested on: Coxsackievirus A16; test: Antiviral activity against Coxsackievirus A16 TA271 infected in RD cells assessed as log reduction in viral genome copies at 0.08 uM/L preincubated with viral suspension for 2 hrs followed by cell addition and measured at 24 hrs post infection by RT-PCR analysis; assay type: functional
[12] = tested on: Coxsackievirus A16; test: Antiviral activity against Coxsackievirus A16 LW614 infected in RD cells assessed as reduction in viral genome copies at 0.08 uM/L preincubated with viral suspension for 2 hrs followed by cell addition and measured at 24 hrs post infection by RT-PCR analysis; assay type: functional, cell-based
[13] = Toxicity in ICR mouse infected with Coxsackievirus A16 TA271 assessed as increase in body weight at 2 mg/kg, im and measured every day; assay type: organism-based; conditions: in vivo
[14] = tested on: Coxsackievirus A16; test: Antiviral activity against Coxsackievirus A16 TA271 infected in ICR mouse assessed as reduction in viral load in heart at 2 mg/kg, im after 3 to 5 days post infection by RT-PCR analysis; assay type: functional, organism-based
[15] = tested on: Coxsackievirus A16; test: Antiviral activity against Coxsackievirus A16 TA271 infected in ICR mouse assessed as reduction in viral load in heart at 0.08 uM/L preincubated with viral suspension for 2 hrs followed by intramuscular administration after 3 to 5 days post infection by RT-PCR analysis; assay type: functional
[16] = tested on: Coxsackievirus A16; test: Antiviral activity against Coxsackievirus A16 TA271 infected in ICR mouse assessed as reduction in viral load in spinal muscle at 0.08 uM/L preincubated with viral suspension for 2 hrs followed by intramuscular administration after 3 to 5 days post infection by RT-PCR analysis; assay type: functional
[17] = tested on: Coxsackievirus A16; test: Antiviral activity against Coxsackievirus A16 TA271 infected in ICR mouse assessed as reduction in lesions in heart at 2 mg/kg, im after 5 days post infection by H and E staining based histopathological analysis; assay type: functional, organism-based
[18] = tested on: Coxsackievirus A16; test: Antiviral activity against Coxsackievirus A16 TA271 infected in ICR mouse assessed as reduction in lesions in hind limb muscle at 2 mg/kg, im after 5 days post infection by H and E staining based histopathological analysis; assay type: functional, organism-based
[19] = tested on: Coxsackievirus A16; test: Antiviral activity against Coxsackievirus A16 TA271 infected in ICR mouse assessed as reduction in lesions in spinal muscle at 2 mg/kg, im after 5 days post infection by H and E staining based histopathological analysis; assay type: functional, organism-based
[20] = tested on: Coxsackievirus A16; test: Antiviral activity against Coxsackievirus A16 TA271 infected in ICR mouse assessed as reduction in inflammatory cell infiltration in spinal muscle at 2 mg/kg, im after 5 days post infection by H and E staining based histopathological analysis; assay type: functional, organism-based
[21] = tested on: Coxsackievirus A16; test: Antiviral activity against Coxsackievirus A16 TA271 infected in ICR mouse assessed as reduction in muscle fiber breakage in lung at 2 mg/kg, im after 5 days post infection by H and E staining based histopathological analysis; assay type: functional, organism-based
[22] = tested on: Coxsackievirus A16; test: Antiviral activity against Coxsackievirus A16 TA271 infected in ICR mouse assessed as reduction in muscle fiber breakage in hind limb muscle at 2 mg/kg, im after 5 days post infection by H and E staining based histopathological analysis; assay type: functional, organism-based
[23] = tested on: Coxsackievirus A16; test: Antiviral activity against Coxsackievirus A16 TA271 infected in ICR mouse assessed as mild alveolar fibrosis in hind limb muscle at 2 mg/kg, im after 5 days post infection by H and E staining based histopathological analysis; assay type: functional, organism-based
[24] = tested on: Coxsackievirus A16; test: Antiviral activity against Coxsackievirus A16 TA271 infected in ICR mouse assessed as mild alveolar wall thickening in heart at 2 mg/kg, im after 5 days post infection by H and E staining based histopathological analysis; assay type: functional, organism-based
[25] = tested on: Coxsackievirus A16; test: Antiviral activity against Coxsackievirus A16 TA271 infected in ICR mouse assessed as mild alveolar wall thickening in lung at 2 mg/kg, im after 5 days post infection by H and E staining based histopathological analysis; assay type: functional, organism-based
[26] = tested on: Coxsackievirus A16; test: Antiviral activity against Coxsackievirus A16 TA271 infected in ICR mouse assessed as reduction in virus-induced IFN-gamma level at 2 mg/kg, im after 3 days post infection by ELISA; assay type: functional, organism-based
[27] = tested on: Coxsackievirus A16; test: Antiviral activity against Coxsackievirus A16 TA271 infected in ICR mouse assessed as effect on virus-induced IL-6 level at 2 mg/kg, im after 3 days post infection by ELISA; assay type: functional, organism-based
[28] = tested on: Coxsackievirus A16; test: Antiviral activity against Coxsackievirus A16 TA271 infected in ICR mouse assessed as reduction in virus-induced IL-6 level at 0.08 uM/L preincubated with viral suspension for 2 hrs followed by intramuscular administration after 3 days post infection by ELISA; assay type: functional
[29] = tested on: Mus musculus; test: Effect on IFN-gamma level in ICR mouse at 2 mg/kg, administered intramuscularly by ELISA; assay type: functional, organism-based
[30] = tested on: Mus musculus; test: Effect on IL-6 level in ICR mouse at 2 mg/kg, administered intramuscularly by ELISA; assay type: functional, organism-based

**Q.** Which results are given for `CC(=O)OC(CC=C(C)C)C1=CC(=O)c2c(O)ccc(O)c2C1=O` (stereo not given)?
**A.** selectivity ratio [1]: 235; Activity [2]: inactive; Activity [3]: inactive; Activity [4]: inactive; Activity [5]: inactive; Activity [6]: inactive; Activity [7]: inactive; Activity [8]: Active; Activity [9]: inactive; Activity [10]: inactive; LCK [11]: >2; Activity [12]: Active; Activity [13]: Non-Toxic; Activity [14]: Active; Activity [15]: Active; Activity [16]: Active; Activity [17]: Active; Activity [18]: Active; Activity [19]: Active; Activity [20]: Active; Activity [21]: Active; Activity [22]: Active; Activity [23]: Active; Activity [24]: Active; Activity [25]: Active; Activity [26]: Active; Activity [27]: inactive; Activity [28]: Active; Activity [29]: inactive; Activity [30]: inactive
